Data: patent US6689788B1, “Method and composition for treatment of inflammatory bowel disease” (University of Florida, priority 2000, dated 2004)
“Also recorded” adds a separate entry of the source.

Experiments:
[1] = tested on: acetic acid-induced colitis; test: acetic acid-induced colitis in the rat, test drug i.r. 30 minutes before acetic acid; assay type: in vivo; details: for damage in the colons: 650 μmol/kg i.r. 30 minutes before acetic acid, colons assessed 24 hours later
Text: A typical model of IBD in acetic acid-induced colitis in the rat has been described by Krawisz et al in Amer. J. Proc. Gastro. Col. Rec. Surg., Vol. 31, pages 11-18 (1980); and by Sharon et al in Gastroenterology, Vol. 88, pages 55-63 (1985) and Vol. 86, pages 453-460 (1984). Acetic acid-induced colitis is characterized by the movement of inflammatory cells into the colon, with the number of such cells in the mucosa being measured by the activity of myeloperoxidase, a marker enzyme for these cells. Positive desirable activity is indicated by a reduction in the high levels of myeloperoxidase caused by acetic acid. Typically, Sprague-Dawley rats from Charles River Laboratories, Portage, Mich. (either sex, weight approximately 250 g) are dosed with test compounds and controls. Thereafter, the rats are given an intracolonic enema of acetic acid which produces a severe inflammatory response in the colon of a healthy rat characterized by rectal bleeding, diarrhea, epithelial erosions and destructions of crypts and gland cells. Twenty-four hours later, the test and control animals are sacrificed and the distal ten centimeters of the colons are removed and opened longitudinally. The tissue lesions contained within the removed, opened section of the colons are scored. After the systematic evaluation of the impact of various fasting times, use of vehicles, the time interval between pre-treatment and administration of the acetic acid and altering the concentration of acetic acid, the final protocol for the experiments is to fast the rats for 30 hours in hanging wire cages, anesthetize the animals with sodium pentobarbital, administer the test drug 1 cc intrarectally (i.r.) either as a suspension or a solution in water, and to give the acetic acid (7.5% in water) 1 cc i.r. 30 minutes later. The rats are sacrificed 24 hours later and the colons are removed and assessed for damage.

[2] = tested on: acetic acid-induced colitis; test: reversal studies, compound given 30 minutes after 2.5% acetic acid; assay type: in vivo, rat
Text: (§1) The lesions were apparently resolving and with some lamina proprial fibrosis and considerable hyperplasia of submucosal lymphoid tissue. […] This is a highly desirable property, as patients suffering from IBD are already anemic due to disease-related blood loss.

[3] = tested on: mice; details: mouse, in vivo
Text: DFO and DFT given i.r. at a dose of 650 μmol/kg were ineffective. […] See, for example, FIGS. 7 and 8.

[4] = iron binding in a test tube; assay type: physicochemical
Text: as §1

[5] = tested on: iron; test: iron chelator activity when given to rats; assay type: in vivo
Text: as §1

In the case of `C[C@]1(C(=O)O)CSC(c2ncccc2O)=N1` [DFT, reference compound], the “damage in the colons” value [1] is reported as “ineffective”.

In the case of `CC(=O)N(O)CCCCCNC(=O)CCC(=O)N(O)CCCCCNC(=O)CCC(=O)N(O)CCCCCN` [DFO, reference compound], the “damage in the colons” value [1] is reported as “ineffective”.

In the case of `Cc1ccc(O)c(C2=NC(C(=O)O)CC2)c1` (stereo not shown) [2H-pyrrolecarboxylic acid, 3,4-dihydro-5-(2-hydroxy-5-methylphenyl)-2H-pyrrole-2-carboxylic acid], the “dose response study, prevention of severe lesions” value ([1]; 162.5 μmol/kg (41.5 mg/kg) at 1 cc i.r.) is reported as “severe lesions being prevented in a majority of rats”, the “damage in the colons” value [1] is reported as “very little damage; also recorded: considerably less damage” and the “head-to-head comparison with 5-ASA or its commercially available formulation (Rowasa)” value ([1]; compound 650 μmol/kg vs. 5-ASA/Rowasa 1742 μmol/kg) is reported as “far superior”. The “lesions compared with the control group” value [2] was “less severe and less active”, the acute toxicity [3] was “virtually non-toxic” and the iron binding [4] was “binds iron remarkably well”. For the same molecule, the “activity as an iron chelator” value ([5]; orally) was “inactive” and the “activity as an iron chelator” value ([5]; subcutaneously (s.c.)) was “inactive”.
